From patent US5583115A, “Dialkyltiacumicin compounds” (Abbott Laboratories, priority 1995, dated 1996)
In brackets after ≈: the same amount, converted by molar mass. Read-outs that look alike come from different tables or passages of the source.

Legend:
P. anaerobius = experiment: MIC agar dilution, anaerobic bacteria; assay type: cell-based; details: Peptostreptococcus anaerobius, 20 h
Propionibacterium acnes = experiment: MIC agar dilution, anaerobic bacteria; assay type: cell-based; details: Cutibacterium acnes, 20 h
B. bivius = experiment: MIC agar dilution, anaerobic bacteria; assay type: cell-based; details: Prevotella bivia, 20 h
B. thetaiotaomicron = experiment: MIC agar dilution, anaerobic bacteria; assay type: cell-based
Veillonella parvula = experiment: MIC agar dilution, anaerobic bacteria; assay type: cell-based; details: Veillonella parvula, 20 h
Fusobacterium species = experiment: MIC agar dilution, anaerobic bacteria; assay type: cell-based; details: Fusobacterium, 20 h
Fusobacterium nucleatum = experiment: MIC agar dilution, anaerobic bacteria; assay type: cell-based; details: Fusobacterium nucleatum, 20 h
B. loescheii = experiment: MIC agar dilution, anaerobic bacteria; assay type: cell-based; details: Hoylesella loescheii, 20 h
P. species = experiment: MIC agar dilution, anaerobic bacteria; assay type: cell-based; details: 20 h; Culture # 1776; read-out: MIC
C. ramosum = experiment: MIC agar dilution, anaerobic bacteria; assay type: cell-based; details: Thomasclavelia ramosa, 20 h
Clostridium perfringens = experiment: microbe, parasite or virus in culture; assay type: cell-based; details: Clostridium perfringens, 20 h
[1] = test system: Peptostreptococcus asaccharolyticus; experiment: MIC agar dilution, anaerobic bacteria; assay type: cell-based; details: Peptoniphilus asaccharolyticus, 20 h
C. difficile = experiment: MIC agar dilution, anaerobic bacteria; assay type: cell-based; details: Clostridioides difficile, 20 h
P. magnus = experiment: MIC agar dilution, anaerobic bacteria; assay type: cell-based; details: Finegoldia magna, 20 h
B. vulgatus = experiment: MIC agar dilution, anaerobic bacteria; assay type: cell-based
Bacteriodes fragilis = experiment: MIC agar dilution, anaerobic bacteria; assay type: cell-based; details: 20 h
B. disiens = experiment: MIC agar dilution, anaerobic bacteria; assay type: cell-based; details: Prevotella disiens, 20 h
P. cepacia = experiment: MIC agar dilution, aerobic and facultative bacteria; details: Burkholderia cepacia, 20 h
E. coli = experiment: as above; assay type: cell-based; details: Escherichia coli, 20 h, read-out: MIC
Staphylococcus aureus = experiment: as above; details: Staphylococcus aureus, 20 h
Enterococcus faecium = experiment: as above; details: Enterococcus faecium, 20 h
Micrococcus luteus = experiment: as above; details: Micrococcus luteus, 20 h
[2] = test system: Acinetobacter calcoaceticus; experiment: as above; details: Acinetobacter calcoaceticus, 20 h
Klebsiella pneumoniae = experiment: as above; details: Klebsiella pneumoniae, 20 h
Streptococcus bovis = experiment: as above; details: Streptococcus equinus, 20 h
S. epidermidis = experiment: as above; details: Staphylococcus epidermidis, 20 h
Providencia stuartii = experiment: as above; details: Providencia stuartii, 20 h
Enterobacter aerogenes = experiment: as above; details: Klebsiella aerogenes, 20 h
Streptococcus agalactiae = experiment: as above; details: Streptococcus agalactiae, 20 h
S. pyogenes = experiment: as above; details: Streptococcus pyogenes, 20 h
Pseudomonas aeruginosa = experiment: as above
Clostridium difficile = experiment: In vivo hamster model of pseudomembranous Clostridium difficile induced colitis; details: for % Mortality: days 8-14, expiring by day 20
Protocol: (Suppression of normal gastrointestinal bacteria by the ciprofloxacin permitted the drug-resistant C. difficile to predominate.) Five additional hamsters were segregated as a noninfected control group.
The infected animals were divided into three groups comprising (a) 10 untreated animals; (b) 15 vancomycin-treated animals (5 each at 20, 10 and 1 mg/kg/day orally on days 8-14); and (c) 10 animals treated with the compound of Example 2 (5 each at 10 and 1 mg/kg/day on days 8-14). The subject animals were monitored for (a) body weight (infected hamsters lose significant body mass), and (b) mortality (percent expiring by day 20).

[3] = Bacteroides thetaiotaomicron, 20 h, Culture # 1764, read-out: MIC

Structure (SMILES): CCC[C@@H]1C[C@@H](C(=O)N[C@@H]([C@H]2O[C@H](SC)[C@H](O)[C@@H](O)[C@H]2O)[C@H](C)Cl)N(C)C1 [Clindamycin]
- MIC (P. anaerobius; Culture # 1780, read-out: MIC): 0.06 µg/mL (≈ 0.141 µM)
- MIC (Propionibacterium acnes; Culture # 1775, read-out: MIC): 0.06 µg/mL (≈ 0.141 µM)
- MIC (B. bivius; Culture # 2483, read-out: MIC): 0.015 µg/mL (≈ 0.0353 µM)
- MIC (B. thetaiotaomicron; [3]): 4 µg/mL (≈ 9.41 µM)
- MIC (B. thetaiotaomicron; Culture # 1765): 4 µg/mL (≈ 9.41 µM)
- MIC (B. thetaiotaomicron; Culture # 1766): 4 µg/mL (≈ 9.41 µM)
- MIC (Veillonella parvula; Culture # 2479, read-out: MIC): 0.06 µg/mL (≈ 0.141 µM)
- MIC (Fusobacterium species; Culture # 1770, read-out: MIC): 0.12 µg/mL (≈ 0.282 µM)
- MIC (Fusobacterium nucleatum; Culture # 2478, read-out: MIC): 0.12 µg/mL (≈ 0.282 µM)
- MIC (B. loescheii; Culture # 1767, read-out: MIC): 0.06 µg/mL (≈ 0.141 µM)
- MIC (P. species): 0.06 µg/mL (≈ 0.141 µM)
- MIC (C. ramosum; Culture # 2482, read-out: MIC): 1 µg/mL (≈ 2.35 µM)
- MIC (Clostridium perfringens; Culture # 1771): 0.06 µg/mL (≈ 0.141 µM)
- MIC (Clostridium perfringens; Culture # 1772): 0.5 µg/mL (≈ 1.18 µM)
- MIC (Clostridium perfringens; Culture # 1773): 0.06 µg/mL (≈ 0.141 µM)
- MIC ([1]; Culture # 1777, read-out: MIC): 0.03 µg/mL (≈ 0.0706 µM)
- MIC (C. difficile; Culture # 1496, read-out: MIC): > 32 µg/mL
- MIC (C. difficile; Culture # 1497, read-out: MIC): > 32 µg/mL
- MIC (C. difficile; Culture # 1774, read-out: MIC): 0.5 µg/mL (≈ 1.18 µM)
- MIC (C. difficile; Culture # 2025, read-out: MIC): 4 µg/mL (≈ 9.41 µM)
- MIC (C. difficile; Culture # 2480, read-out: MIC): 4 µg/mL (≈ 9.41 µM)
- MIC (C. difficile; Culture # 2528, read-out: MIC): 4 µg/mL (≈ 9.41 µM)
- MIC (C. difficile; Culture # 2529, read-out: MIC): 4 µg/mL (≈ 9.41 µM)
- MIC (P. magnus; Culture # 1778, read-out: MIC): 1 µg/mL (≈ 2.35 µM)
- MIC (B. vulgatus; Culture # 2481): 0.03 µg/mL (≈ 0.0706 µM)
- MIC (B. vulgatus; Phocaeicola vulgatus, 20 h, Culture # 1762, read-out: MIC): 0.03 µg/mL (≈ 0.0706 µM)
- MIC (Bacteriodes fragilis; Culture # 1756, Wilkins-Chalgren agar, 37° C., 48 hours, read-out: MIC): 1 µg/mL (≈ 2.35 µM)
- MIC (Bacteriodes fragilis; Culture # 1757, read-out: MIC): 1 µg/mL (≈ 2.35 µM)
- MIC (Bacteriodes fragilis; Culture # 1758, read-out: MIC): 0.5 µg/mL (≈ 1.18 µM)
- MIC (Bacteriodes fragilis; Culture # 1999, read-out: MIC): 1 µg/mL (≈ 2.35 µM)
- MIC (B. disiens; Culture # 1763, read-out: MIC): 0.015 µg/mL (≈ 0.0353 µM)

Structure (SMILES): CN[C@H](CC(C)C)C(=O)N[C@H]1C(=O)N[C@@H](CC(N)=O)C(=O)N[C@H]2C(=O)N[C@H]3C(=O)N[C@H](C(=O)N[C@H](C(=O)O)c4cc(O)cc(O)c4-c4cc3ccc4O)[C@H](O)c3ccc(c(Cl)c3)Oc3cc2cc(c3O[C@@H]2O[C@H](CO)[C@@H](O)[C@H](O)[C@H]2O[C@H]2C[C@](C)(N)[C@H](O)[C@H](C)O2)Oc2ccc(cc2Cl)[C@H]1O [Vancomycin]
- MIC (P. cepacia): > 200 µg/mL
- MIC (P. anaerobius): 0.5 µg/mL (≈ 0.345 µM)
- MIC (E. coli; DC-2, Culture # 1674): > 200 µg/mL
- MIC (E. coli; H560, Culture # 1675): > 200 µg/mL
- MIC (E. coli; Juhl, Culture # 1673): > 200 µg/mL
- MIC (E. coli; KNK437, Culture # 1676): > 200 µg/mL
- MIC (E. coli; SS, Culture # 2489): 50 µg/mL (≈ 34.5 µM)
- MIC (Staphylococcus aureus; Culture # 1662, brain heart infusion agar, 37° C.): 3.1 µg/mL (≈ 2.14 µM)
- MIC (Staphylococcus aureus; Culture # 1664): 1.56 µg/mL (≈ 1.08 µM)
- MIC (Staphylococcus aureus; Culture # 1690): 1.56 µg/mL (≈ 1.08 µM)
- MIC (Staphylococcus aureus; Culture # 2124): 3.1 µg/mL (≈ 2.14 µM)
- MIC (Staphylococcus aureus; Culture # 2130): 3.1 µg/mL (≈ 2.14 µM)
- MIC (Staphylococcus aureus; Culture # 2498): 3.1 µg/mL (≈ 2.14 µM)
- MIC (Staphylococcus aureus; cipro res., Culture # 3384): 1.56 µg/mL (≈ 1.08 µM)
- MIC (Propionibacterium acnes): 0.5 µg/mL (≈ 0.345 µM)
- MIC (B. bivius): 32 µg/mL (≈ 22.1 µM)
- MIC (Enterococcus faecium): 3.1 µg/mL (≈ 2.14 µM)
- MIC (Micrococcus luteus; Culture # 2493): 0.78 µg/mL (≈ 0.538 µM)
- MIC (Micrococcus luteus; Culture # 2517): 3.1 µg/mL (≈ 2.14 µM)
- MIC (B. thetaiotaomicron; [3]): > 64 µg/mL
- MIC (B. thetaiotaomicron; Culture # 1765): > 64 µg/mL
- MIC (B. thetaiotaomicron; Culture # 1766): > 64 µg/mL
- MIC (Veillonella parvula): > 64 µg/mL
- MIC (Fusobacterium species): > 64 µg/mL
- MIC [2]: > 200 µg/mL
- MIC (Klebsiella pneumoniae): > 200 µg/mL
- MIC (Streptococcus bovis): 0.78 µg/mL (≈ 0.538 µM)
- MIC (Fusobacterium nucleatum): > 64 µg/mL
- MIC (S. epidermidis): 3.1 µg/mL (≈ 2.14 µM)
- MIC (B. loescheii): 32 µg/mL (≈ 22.1 µM)
- MIC (Providencia stuartii): > 200 µg/mL
- MIC (P. species): 1 µg/mL (≈ 0.69 µM)
- MIC (C. ramosum): 8 µg/mL (≈ 5.52 µM)
- MIC (Clostridium perfringens; Culture # 1771): > 64 µg/mL
- MIC (Clostridium perfringens; Culture # 1772): 0.5 µg/mL (≈ 0.345 µM)
- MIC (Clostridium perfringens; Culture # 1773): 1 µg/mL (≈ 0.69 µM)
- MIC (Enterobacter aerogenes): > 200 µg/mL
- MIC (Streptococcus agalactiae): 3.1 µg/mL (≈ 2.14 µM)
- MIC [1]: 1 µg/mL (≈ 0.69 µM)
- MIC (S. pyogenes; Culture # 1671): 3.1 µg/mL (≈ 2.14 µM)
- MIC (S. pyogenes; const., Culture # 1672): 0.78 µg/mL (≈ 0.538 µM)
- MIC (S. pyogenes; inducible, Culture # 2548): 0.78 µg/mL (≈ 0.538 µM)
- MIC (C. difficile; Culture # 1496): 0.5 µg/mL (≈ 0.345 µM)
- MIC (C. difficile; Culture # 1497): 0.5 µg/mL (≈ 0.345 µM)
- MIC (C. difficile; Culture # 1774): 2 µg/mL (≈ 1.38 µM)
- MIC (C. difficile; Culture # 2025): 0.5 µg/mL (≈ 0.345 µM)
- MIC (C. difficile; Culture # 2480): > 64 µg/mL
- MIC (C. difficile; Culture # 2528): 1 µg/mL (≈ 0.69 µM)
- MIC (C. difficile; Culture # 2529): 1 µg/mL (≈ 0.69 µM)
- MIC (Pseudomonas aeruginosa; Culture # 1680): > 200 µg/mL
- MIC (Pseudomonas aeruginosa; Culture # 1681): > 200 µg/mL
- MIC (Pseudomonas aeruginosa; Culture # 1682): > 200 µg/mL
- MIC (Pseudomonas aeruginosa; Pseudomonas aeruginosa, 20 h): > 200 µg/mL
- MIC (Pseudomonas aeruginosa; cipro R, Culture # 1919): > 200 µg/mL
- MIC (Pseudomonas aeruginosa; cipro R, Culture # 1920): > 200 µg/mL
- MIC (P. magnus): 0.5 µg/mL (≈ 0.345 µM)
- MIC (B. vulgatus; Phocaeicola vulgatus, 20 h, Culture # 2481): 64 µg/mL (≈ 44.2 µM)
- MIC (B. vulgatus; Phocaeicola vulgatus, 20 h, Culture # 1762): 32 µg/mL (≈ 22.1 µM)
- MIC (Bacteriodes fragilis; Culture # 1756, Wilkins-Chalgren agar, 37° C., 48 hours): 32 µg/mL (≈ 22.1 µM)
- MIC (Bacteriodes fragilis; Culture # 1757): 32 µg/mL (≈ 22.1 µM)
- MIC (Bacteriodes fragilis; Culture # 1758): 16 µg/mL (≈ 11 µM)
- rapidity of mortality (Clostridium difficile; 1 mg/kg versus 10 or 20 mg/kg): more rapid mortality than hamsters treated at 10 or 20 mg/kg
- % Mortality (Clostridium difficile; 1 mg/kg/day): 100%
- % Mortality (Clostridium difficile; 10 mg/kg/day): 100%
- % Mortality (Clostridium difficile; 20 mg/kg/day, orally): 100%
- MIC (B. disiens): 32 µg/mL (≈ 22.1 µM)
